Results on three molecules are retold here after patent US20100004259A1, “Tartrate Salt of (7S)-7-[(5-Fluoro-2-Methyl-Benzyl)oxy]-2-[(2R)-2-Methylpiperazin-1-YL]-6,7-Dihydro-5H-Cyclopenta[B]Pyridine” (Pfizer Inc., priority 2006, published 2010).

A short description of data set [1]: hygroscopicity by dynamic vapor sorption. The data set is classed as physicochemical. As to the method: Hygroscopicity was assessed using a dynamic vapor sorption technique in which an accurately weighed sample is subjected to progressively changing water vapor pressure while simultaneously recording the weight change. The experiment was conducted isothermally at 25° C.
Less than 0.5% increase in weight was detected at 90±2% relative humidity during an isothermal (25.1±0.1° C.) moisture sorption analysis conducted from approximately 1% to 90% (±2%) humidity. […] The amount of water vapor sorption may vary depending on the particle size and surface area of sample.

The target in data set [2] is T1, 5HT2a (Homo sapiens, UniProt P28223). Nature of the data set: functional activity at the 5-HT2a receptor. An excerpt: (§1) Formula I of the present invention is functionally selective for 5-HT2c against 5-HT2a and 5-HT2b, by virtue of its much greater agonistic potency (lower EC50) for 5-HT2c than that observed for 5-HT2a and/or 5-HT2b or its lack of agonistic activity at 5-HT2a and/or 5-HT2b.
T1 sequence (P28223 whole entry): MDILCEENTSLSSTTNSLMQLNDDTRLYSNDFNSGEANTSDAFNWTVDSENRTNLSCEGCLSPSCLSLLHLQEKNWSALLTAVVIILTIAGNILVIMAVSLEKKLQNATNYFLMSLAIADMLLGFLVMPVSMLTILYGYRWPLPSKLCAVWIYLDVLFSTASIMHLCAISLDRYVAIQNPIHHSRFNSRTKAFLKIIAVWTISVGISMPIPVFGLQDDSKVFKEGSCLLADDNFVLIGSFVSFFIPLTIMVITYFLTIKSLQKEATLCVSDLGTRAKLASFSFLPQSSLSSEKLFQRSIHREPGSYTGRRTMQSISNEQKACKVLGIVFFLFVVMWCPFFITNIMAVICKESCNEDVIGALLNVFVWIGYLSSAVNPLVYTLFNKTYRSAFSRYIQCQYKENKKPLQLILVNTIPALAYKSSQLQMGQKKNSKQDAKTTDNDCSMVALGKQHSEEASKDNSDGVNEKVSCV

Data set [3] has as its target T2, 5HT2c (Homo sapiens, UniProt P28335).
T2 sequence (P28335 33-458): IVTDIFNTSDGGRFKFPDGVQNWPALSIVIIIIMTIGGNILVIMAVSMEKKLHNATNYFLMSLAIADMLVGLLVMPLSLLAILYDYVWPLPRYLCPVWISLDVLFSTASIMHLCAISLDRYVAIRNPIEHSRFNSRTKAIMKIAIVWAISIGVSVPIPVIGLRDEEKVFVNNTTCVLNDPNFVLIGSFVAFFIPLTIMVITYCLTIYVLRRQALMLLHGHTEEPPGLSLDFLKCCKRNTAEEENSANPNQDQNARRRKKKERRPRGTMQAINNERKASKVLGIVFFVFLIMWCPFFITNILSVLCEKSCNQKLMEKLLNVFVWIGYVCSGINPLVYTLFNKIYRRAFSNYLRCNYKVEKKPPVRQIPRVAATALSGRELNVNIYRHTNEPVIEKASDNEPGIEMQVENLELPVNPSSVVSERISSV
Nature of the data set: receptor binding assay at human 5HT2c receptor. The following applies: an amorphous salt of Formula I was tested. How it is done: (§2) An amorphous salt of Formula I was tested in accordance with the binding assay procedures at human receptors provided in U.S. application Ser. No. 11/395,327, and the following receptor binding data for the compound of Formula I was obtained: […]

Data set [4] deals with T3, 5HT2b (Homo sapiens, UniProt P41595). Description: functional activity at the 5-HT2b receptor.
T3 sequence (P41595 whole entry): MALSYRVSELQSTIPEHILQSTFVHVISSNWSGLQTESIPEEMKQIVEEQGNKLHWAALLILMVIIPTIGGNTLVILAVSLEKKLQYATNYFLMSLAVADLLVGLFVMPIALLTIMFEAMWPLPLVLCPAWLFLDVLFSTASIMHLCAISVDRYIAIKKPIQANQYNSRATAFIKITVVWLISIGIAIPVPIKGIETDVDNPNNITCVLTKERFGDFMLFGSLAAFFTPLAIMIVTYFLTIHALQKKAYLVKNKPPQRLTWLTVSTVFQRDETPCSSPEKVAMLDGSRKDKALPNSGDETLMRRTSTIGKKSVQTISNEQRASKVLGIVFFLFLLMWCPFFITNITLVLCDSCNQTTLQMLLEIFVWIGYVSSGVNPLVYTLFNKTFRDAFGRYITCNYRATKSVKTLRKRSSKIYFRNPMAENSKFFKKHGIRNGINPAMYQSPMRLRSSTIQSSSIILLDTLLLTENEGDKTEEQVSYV
From the text: as §1

Data set [5] has as its target T2, 5HT2c. Description: functional activity at the 5-HT2c receptor.
From the text: as §1

Data set [6] deals with T1, 5HT2a. Nature of the data set: receptor binding assay at human 5HT2a receptor. The following applies: an amorphous salt of Formula I was tested.
For data set [7], the target named is T3, 5HT2b. Nature of the data set: receptor binding assay at human 5HT2b receptor. The following applies: an amorphous salt of Formula I was tested. How it is done: as §2
For data set [8] the following is noted: cited from earlier work.
For data set [9] the following is noted: cited from earlier work. The source holds these as a separate data set.

With `Cc1ccc(F)cc1CO[C@H]1CCc2ccc(N3CCNC[C@H]3C)nc21.O=C(O)C(O)C(O)C(=O)O` [(S)-7-(5-Fluoro-2-methyl-benzyloxy)-2-((R)-2-methyl-piperazin-1-yl)-6,7-dihydro-5H-[1]pyrindine L(+)-tartrate], the “increase in weight (moisture sorption)” value in [1] (at 90±2% relative humidity, isothermal (25.1±0.1° C.) moisture sorption from approximately 1% to 90% (±2%) humidity) was “Less than 0.5%”. Moreover, the hygroscopicity assessment result in data set [1] (dynamic vapor sorption, isothermal at 25° C.) is given as “non-hygroscopic”.
As a reminder, the Ki is a dissociation constant, usually derived from enzyme kinetics or from competition with a known ligand. Take `Cc1ccc(F)cc1CO[C@H]1CCc2ccc(N3CCNC[C@H]3C)nc21` [Formula I, (7S)-7-[(5-fluoro-2-methyl-benzyl)oxy]-2-[(2R)-2-methylpiperazin-1-yl]-6,7-dihydro-5H-cyclopenta[b]pyridine]: in [2], the “functional activity at the 5-HT2a receptor” value was “antagonist or weak partial agonist”. The Ki is 1.5 nM in data set [3], 4.5 nM in [6] and 7.7 nM in data set [7]. Moreover, in data set [4], the “functional activity at the 5-HT2b receptor” value is recorded as “antagonist”. The “functional activity at the 5-HT2c receptor” value in [5] is recorded as “potent, high affinity agonist”.
As a reminder, the half-life is the time in which the quantity being followed falls by half. For `O=C1Cc2cc(CCN3CCN(c4nsc5ccccc45)CC3)c(Cl)cc2N1` [Ziprasidone, 5-[2-[4-(1,2-benzisothiazol-3-yl)piperazin-1-yl]ethyl]-6-chloroindolin-2-one], the protein binding result in [8] is recorded as “extensive”. Also, in data set [9] (in vivo), the half-life is 6 to 7 h. Besides, the oral bioavailability result in data set [9] (taken with food) was “approximately 60%”.
